According to article PMC9636434, “Discovery of small molecule agonists of the Relaxin Family Peptide Receptor 2” (Communications Biology, 2022):
Several values for one entry are separate records, joined by “and”; a condition that tells them apart may be missing. Identical values can stand only once. Entries after “also recorded” stand apart in the source; their conditions may differ.

Legend:
human ADORA1 = biological target: T1, human ADORA1 (Homo sapiens, UniProt P30542); test: GloSensor cAMP inhibition assay in ADORA1 transiently transfected HEK293T cells; format: cell-based; conditions: for RLU: replicates (1)-(4)
T1 sequence (P30542 1-326): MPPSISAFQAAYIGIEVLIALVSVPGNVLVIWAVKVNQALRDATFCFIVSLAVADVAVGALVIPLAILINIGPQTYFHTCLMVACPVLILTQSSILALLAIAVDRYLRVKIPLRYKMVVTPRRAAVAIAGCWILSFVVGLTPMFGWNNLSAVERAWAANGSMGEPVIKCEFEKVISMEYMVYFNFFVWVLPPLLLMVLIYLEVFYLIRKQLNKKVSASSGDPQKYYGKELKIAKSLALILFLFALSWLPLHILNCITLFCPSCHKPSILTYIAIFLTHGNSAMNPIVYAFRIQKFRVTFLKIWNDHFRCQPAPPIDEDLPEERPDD
Experimental: β-arrestin is an important GPCR adaptor protein that mediates several receptor processes including signaling, desensitization, and trafficking. […] GPCR-mediated β-arrestin recruitment for a panel of 320 human GPCRs was studied in transiently transfected HTLA cells treated with 10 µM compound. The results for all 320 GPCRs tested are summarized in Supplementary Data 1. […] ADORA1 activation by an agonist results in Gαi protein binding, an inhibition of adenylate cyclase and, therefore, a decrease in the cAMP concentration.
Experiments to analyze the cAMP response in RXFP3, RXFP4, and ADORA1 transiently transfected HEK293T cells was performed in the National Institute of Mental Health’s Psychoactive Drug Screening Program, Contract #HHSN-271-2018-00023-C (NIMH PDSP).
ADORA1 activation. cAMP in HEK293T cells transiently transfected with human
ADORA1 was induced by treatment with 0.1 µM of isoproterenol. cAMP inhibition is
Results are reported as raw
RLU values and represent the mean ± SEM of 4 technical replicates.
(1 picture or pasted object on this page, not shown here)

human TSHR = human TSHR (Homo sapiens, UniProt P16473); test: HitHunter cAMP XS+ assay, cAMP Hunter cell line TSHR; format: cell-based; conditions: for RLU: replicates (1),(2)
Description: Results are reported as raw RLU values and represent the
mean ± SEM of 2 technical replicates.

mouse RXFP2 = biological target: T2, mouse RXFP2 (Mus musculus, UniProt Q91ZZ5); test: CRE-luciferase reporter assay in HEK293T-CRE-Luc cells transiently transfected with mouse Rxfp2; format: cell-based
T2 construct: FLAG (N); expressed in transfected cells; host or cells: HEK293T-CRE-Luc (transient)
Description: Therefore, we examined the capacity of the identified human RXFP2 agonists to activate murine RXFP2. […] The observed difference between CRE-luciferase reporter assays with human and mouse RXFP2 might be due to a lower expression of the receptor in transiently transfected mouse RXFP2 cells compared to the stably transfected human RXFP2 cell line.
HEK293T-CRE-Luc cells express luciferase under the control of the cAMP response element (CRE), which allows for indirect measurement of intracellular cAMP accumulation. HEK293T-CRE-Luc cells were stably transfected with human RXFP2 (HEK-CRE-Luc-RXFP2) or transiently transfected as above with mouse Rxfp2 (HEK-CRE-Luc-Rxfp2). HEK-CRE-Luc-RXFP2 and HEK-CRE-Luc-Rxfp2 cells were seeded at 15,000 and 30,000 cells per well, respectively, in 96-well plates using serum-free DMEM medium and incubated overnight at 37 °C, 5% CO2. After 18 h, cells were treated with a titration of compound, a titration of INSL3, 5 μM forskolin or DMSO vehicle. After treatment, cells were incubated for 3 h at 37 °C, 5% CO2. […] Plates were incubated for 40 min at room temperature protected from light and the luciferase output was read on a CLARIOstar plate reader. […]
Results are expressed as mean ± SEM of 3 independent experim ents. […]

[1] = tested on: female gubernaculum (mouse RXFP2 receptor in vivo); test: Gubernaculum development in female embryos of treated pregnant mice (histology); conditions: 30 mg/kg IP to pregnant females, E12.5 to E17.5
Experimental: The INSL3 surge that drives gubernaculum development during the transabdominal stage of testicular descent in male mice occurs between embryonic day E14.5 and 17.5[5],[6],[41]. In females, there is no detectable INSL3 expression and therefore the gubernaculum remains underdeveloped as a vestigial structure. […] Therefore, we hypothesized that the small molecule agonists of RXFP2 would show similar effects in female mice. Compound activity was tested by injecting pregnant females with the RXFP2 agonists starting from day E12.5 to E17.5 of embryonic development followed by histological evaluation of the gubernaculum in developing female embryos. […] At E18.5 the processus vaginalis or outpouching of the peritoneum occurs in males at the site of gubernacular caudal connection[43] (Fig. 3a). […] No differences were detected in the position of the ovaries in compound-treated female embryos and controls.
Fig. 3 RXFP2 agonists are biologically active and selective in vivo. a Diagram of the treatment protocol and representative histological section of the developed male gubernaculum at embryonic day 18.5 (upper left). b Representative histological sections showing a male-like invagination of the female gubernaculum in all compound-treated embryos (blue arrows). Four female embryos were analyzed per group. Scale bar = 100 µm. […]

T2 sequence (Q91ZZ5 whole entry): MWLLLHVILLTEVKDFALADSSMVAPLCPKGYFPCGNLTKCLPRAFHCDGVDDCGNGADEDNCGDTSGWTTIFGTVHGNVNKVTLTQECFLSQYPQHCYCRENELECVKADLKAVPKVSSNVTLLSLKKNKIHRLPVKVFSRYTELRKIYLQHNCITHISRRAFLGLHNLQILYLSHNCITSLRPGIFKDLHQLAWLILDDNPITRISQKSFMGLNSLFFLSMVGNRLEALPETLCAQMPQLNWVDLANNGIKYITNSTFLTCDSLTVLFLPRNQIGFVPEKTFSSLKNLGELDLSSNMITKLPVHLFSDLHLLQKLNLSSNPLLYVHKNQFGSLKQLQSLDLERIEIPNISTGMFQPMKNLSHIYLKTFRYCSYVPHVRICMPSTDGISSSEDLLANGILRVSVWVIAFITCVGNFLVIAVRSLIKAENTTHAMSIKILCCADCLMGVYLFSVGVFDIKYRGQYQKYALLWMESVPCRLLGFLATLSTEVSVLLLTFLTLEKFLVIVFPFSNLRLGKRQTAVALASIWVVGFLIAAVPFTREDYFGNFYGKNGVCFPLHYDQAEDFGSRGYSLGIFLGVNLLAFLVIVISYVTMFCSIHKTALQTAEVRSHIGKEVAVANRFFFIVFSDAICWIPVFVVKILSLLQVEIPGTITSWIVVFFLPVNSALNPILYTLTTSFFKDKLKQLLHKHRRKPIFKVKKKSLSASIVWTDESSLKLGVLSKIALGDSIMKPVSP
human TSHR, sequence (P16473 21-764): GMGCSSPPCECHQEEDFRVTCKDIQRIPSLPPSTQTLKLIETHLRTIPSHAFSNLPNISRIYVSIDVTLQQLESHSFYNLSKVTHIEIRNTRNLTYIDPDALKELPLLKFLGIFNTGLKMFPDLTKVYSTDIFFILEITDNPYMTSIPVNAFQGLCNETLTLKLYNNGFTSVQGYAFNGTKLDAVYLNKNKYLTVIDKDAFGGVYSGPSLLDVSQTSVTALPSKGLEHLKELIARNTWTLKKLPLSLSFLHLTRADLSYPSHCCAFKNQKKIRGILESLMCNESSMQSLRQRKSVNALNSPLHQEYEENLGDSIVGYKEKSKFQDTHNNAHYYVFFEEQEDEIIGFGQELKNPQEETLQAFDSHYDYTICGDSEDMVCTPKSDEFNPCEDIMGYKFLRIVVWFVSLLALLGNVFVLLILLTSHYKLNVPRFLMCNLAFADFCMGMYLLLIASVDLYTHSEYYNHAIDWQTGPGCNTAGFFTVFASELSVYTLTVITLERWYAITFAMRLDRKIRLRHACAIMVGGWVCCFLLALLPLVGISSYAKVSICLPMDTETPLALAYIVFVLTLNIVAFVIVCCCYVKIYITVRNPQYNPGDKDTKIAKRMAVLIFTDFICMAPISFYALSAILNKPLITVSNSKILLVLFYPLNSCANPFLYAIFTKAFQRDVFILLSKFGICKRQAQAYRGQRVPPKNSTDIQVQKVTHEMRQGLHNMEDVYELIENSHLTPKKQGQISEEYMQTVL

Question: `O=C1Nc2ccc(-c3cc(C(F)(F)F)cc(C(F)(F)F)c3)cc2C(=O)N2CCN(C(=O)COc3ccc(OC(F)(F)F)cc3I)C[C@@H]12` [compound 6641] was tested. Which RLU (human ADORA1; Log [M] -5) did it give?
Answer: 501.695 RLU and 432.184 RLU and 479.802 RLU

Question: What about the RLU (human ADORA1; Log [M] -5.52) of the same molecule?
Answer: 440.941 RLU and 426.71 RLU and 354.463 RLU and 361.031 RLU

Question: What about the RLU (human ADORA1; Log [M] -6) of the same molecule?
Answer: 417.406 RLU and 427.258 RLU and 437.11 RLU and 429.447 RLU

Question: And the RLU (human ADORA1; Log [M] -6.52)?
Answer: 436.015 RLU and 453.53 RLU and 363.767 RLU and 397.155 RLU

Question: What about the RLU (human ADORA1; Log [M] -7) of the same molecule?
Answer: 393.323 RLU and 486.917 RLU and 461.192 RLU and 440.394 RLU

Question: What about the RLU (human ADORA1; Log [M] -7.52) of the same molecule?
Answer: 405.912 RLU and 426.71 RLU and 325.454 RLU and 420.142 RLU

Question: What about the RLU (human ADORA1; Log [M] -8) of the same molecule?
Answer: 517.02 RLU and 436.015 RLU and 373.619 RLU and 451.34 RLU

Question: And the RLU (human ADORA1; Log [M] -8.52)?
Answer: 377.126 RLU and 431.072 RLU and 331.699 RLU and 385.644 RLU

Question: And the RLU (human ADORA1; Log [M] -9)?
Answer: 420.424 RLU and 419.005 RLU and 360.091 RLU and 409.777 RLU

Question: What about the RLU (human ADORA1; Log [M] -9.52) of the same molecule?
Answer: 407.648 RLU and 406.938 RLU and 409.777 RLU and 342.346 RLU

Question: And the “cAMP inhibition in ADORA1-HEK293T transfected cells” value (human ADORA1; cAMP induced by 0.1 µM isoproterenol)?
Answer: failed to detect any significant changes

Question: And the “cAMP response through TSHR” value (human TSHR; Hit Hunter cAMP assay)?
Answer: did not result in an increase of cAMP level

Question: And the RLU (human TSHR; Log [M] -4.70)?
Answer: 1000 RLU and 1240 RLU

Question: What about the RLU (human TSHR; Log [M] -5.18) of the same molecule?
Answer: 1000 RLU and 1040 RLU

Question: And the RLU (human TSHR; Log [M] -5.65)?
Answer: 960 RLU

Question: And the RLU (human TSHR; Log [M] -6.13)?
Answer: 1040 RLU

Question: And the RLU (human TSHR; Log [M] -6.61)?
Answer: 1200 RLU

Question: What about the RLU (human TSHR; Log [M] -7.08) of the same molecule?
Answer: 880 RLU

Question: What about the RLU (human TSHR; Log [M] -7.56) of the same molecule?
Answer: 920 RLU and 1000 RLU

Question: What about the RLU (human TSHR; Log [M] -8.04) of the same molecule?
Answer: 880 RLU

Question: And the RLU (human TSHR; Log [M] -8.52)?
Answer: 1080 RLU and 920 RLU

Question: And the RLU (human TSHR; Log [M] -8.99)?
Answer: 960 RLU and 1040 RLU

Question: What about the activation at 0.0251 µM (mouse RXFP2; mouse RXFP2, Log [M] -7.60, experiments (1)-(3), read-out: % Eff (CRE-luciferase)) of the same molecule?
Answer: 28.9%

Question: What about the “agonism of mouse RXFP2 in CRE-luciferase reporter assay” value (mouse RXFP2; transiently transfected cells) of the same molecule?
Answer: activate the mouse RXFP2 receptor; also recorded: full agonist

Question: And the “gubernaculum phenotype of female embryos at E18.5” value [1]?
Answer: male-like invagination of the gubernaculum
